Experimental data reported in US20250302815A1, “PROTEIN TYROSINE PHOSPHATASE TARGETING LIGANDS” (CALICO LIFE SCIENCES LLC, priority 2021, published 2025).

Columns and labels:
[1] = molecular target: T1, PTPN2 (HiBIT-PTPN2 in 293T.109 cells) (Homo sapiens, UniProt P17706); experiment: HiBiT Degradation 293T.109 PTPN2 (Nano-Glo HiBiT Lytic Assay); type: cell-based; settings: 24.0 hours
T1 construct: expressed in transfected cells; host or cells: 293T.109 (293T WT from ATCC)
T1 sequence (P17706 1-415): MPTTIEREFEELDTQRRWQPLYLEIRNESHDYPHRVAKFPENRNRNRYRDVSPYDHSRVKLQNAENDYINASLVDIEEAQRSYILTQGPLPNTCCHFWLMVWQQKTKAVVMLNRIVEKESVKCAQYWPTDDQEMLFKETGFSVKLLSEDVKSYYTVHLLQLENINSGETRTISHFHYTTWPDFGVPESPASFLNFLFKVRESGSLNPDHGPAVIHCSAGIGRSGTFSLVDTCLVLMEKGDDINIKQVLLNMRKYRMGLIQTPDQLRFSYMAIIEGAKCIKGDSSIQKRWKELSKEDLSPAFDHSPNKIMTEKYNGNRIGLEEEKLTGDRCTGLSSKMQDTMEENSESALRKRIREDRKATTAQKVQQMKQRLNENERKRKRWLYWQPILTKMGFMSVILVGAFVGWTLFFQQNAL
Outline: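 293T.109 cells with ectopic N-terminal HiBiT-tagged PTPN2 (5000/well) exposed to compounds for 24 h at 37 °C, 5% CO2; 11-point half-log titration from 10 μM top, duplicates. Remaining HiBiT-PTPN2 read as luminescence with Nano-Glo HiBiT lytic reagent, normalised to untreated cells (0%) and reagent-free wells.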

[2] = molecular target: T2, PTPN2 (B16F10.4 cells) (Mus musculus, UniProt Q06180); experiment: HiBiT Degradation B16F10.4 PTPN2; type: cell-based; settings: 24.0 hours
T2 construct: HiBiT; host or cells: B16F10.4
T2 sequence (Q06180 1-406): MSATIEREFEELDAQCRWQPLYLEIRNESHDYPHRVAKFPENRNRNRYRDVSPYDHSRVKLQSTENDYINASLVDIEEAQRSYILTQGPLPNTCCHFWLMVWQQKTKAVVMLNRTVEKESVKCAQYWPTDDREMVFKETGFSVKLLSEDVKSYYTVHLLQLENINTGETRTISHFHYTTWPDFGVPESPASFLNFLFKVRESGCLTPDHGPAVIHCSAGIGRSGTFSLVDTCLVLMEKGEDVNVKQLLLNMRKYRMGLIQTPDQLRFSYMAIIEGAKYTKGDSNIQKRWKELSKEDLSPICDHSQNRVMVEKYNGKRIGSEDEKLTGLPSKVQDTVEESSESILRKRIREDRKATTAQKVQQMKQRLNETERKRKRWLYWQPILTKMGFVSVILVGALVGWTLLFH

| SMILES | DC50 [1] [nM] | DC50 [2] [nM] |
| --- | --- | --- |
| CC1(C)C[C@@H](Nc2cccc(-c3sc(C(=O)O)c(OCC(=O)O)c3Cl)c2)CCN1S(=O)(=O)Cc1cccc(NC(=O)C2CCN(C(=O)CCc3cccc4c3CN(C3CCC(=O)NC3=O)C4=O)CC2)c1 (stereo partly drawn) [Example 61, 3-(carboxymethoxy)-4-chloro-5-(3-(((4S)-1-((3-(1-(3-(2-(2,6-dioxopiperidin-3-yl)-1-oxoisoindolin-4-yl)propanoyl)piperidine-4-carboxamido)benzyl)sulfonyl)-2,2-dimethylpiperidin-4-yl)amino)phenyl)thiophene-2-carboxylic acid] | 200 to 1000 | 200 to 1000 |
| O=C(O)COc1c(C(=O)O)sc(-c2cccc(NC3CCN(S(=O)(=O)Cc4cccc(NC(=O)CCOCCOCCCc5cccc6c5C(=O)N(C5CCC(=O)NC5=O)C6=O)c4)CC3)c2)c1Cl (stereo not shown) [Example 20, 3-(carboxymethoxy)-4-chloro-5-[3-[[1-[[3-[3-[2-[3-[2-(2,6-dioxo-3-piperidyl)-1,3-dioxo-isoindolin-4-yl]propoxy]ethoxy]propanoylamino]phenyl]methylsulfonyl]-4-piperidyl]amino]phenyl]thiophene-2-carboxylic acid] | 200 to 1000 | ≥ 1000 |
| O=C(O)COc1c(C(=O)O)sc(-c2cccc(NC3CCN(S(=O)(=O)Cc4cccc(NC(=O)CCCCCCNC(=O)CNc5cccc6c5C(=O)N(C5CCC(=O)NC5=O)C6)c4)CC3)c2)c1Cl (stereo not shown) [Example 30, 3-(carboxymethoxy)-4-chloro-5-[3-[[1-[[3-[7-[[2-[[2-(2,6-dioxo-3-piperidyl)-3-oxo-isoindolin-4-yl]amino]acetyl]amino]heptanoylamino]phenyl]methylsulfonyl]-4-piperidyl]amino]phenyl]thiophene-2-carboxylic acid] | 200 to 1000 | ≥ 1000 |
| CN(C(=O)C1CCN(C(=O)CNc2cccc3c2CN(C2CCC(=O)NC2=O)C3=O)CC1)c1cccc(CS(=O)(=O)N2CC[C@H](Nc3cccc(-c4sc(C(=O)O)c(OCC(=O)O)c4Cl)c3)CC2(C)C)c1 (stereo partly drawn) [Example 67, 3-(carboxymethoxy)-4-chloro-5-(3-(((4S)-1-((3-(1-((2-(2,6-dioxopiperidin-3-yl)-1-oxoisoindolin-4-yl)glycyl)-N-methylpiperidine-4-carboxamido)benzyl)sulfonyl)-2,2-dimethylpiperidin-4-yl)amino)phenyl)thiophene-2-carboxylic acid] | 200 to 1000 | ≥ 1000 |
| Cn1c(=O)n(C2CCC(=O)NC2=O)c2ccc(-c3ccc(CC(=O)Nc4cccc(CS(=O)(=O)N5CC[C@H](Nc6cccc(-c7sc(C(=O)O)c(OCC(=O)O)c7Cl)c6)CC5(C)C)c4)cc3F)cc21 (stereo partly drawn) [Example 178, 3-(carboxymethoxy)-4-chloro-5-(3-(((4S)-1-((3-(2-(4-(1-(2,6-dioxopiperidin-3-yl)-3-methyl-2-oxo-2,3-dihydro-1H-benzo[d]imidazol-5-yl)-3-fluorophenyl)acetamido)benzyl)sulfonyl)-2,2-dimethylpiperidin-4-yl)amino)phenyl)thiophene-2-carboxylic acid] | 50 to 200 | 50 to 200 |
| O=C(O)COc1c(C(=O)O)sc(-c2cccc(NC3CCN(S(=O)(=O)Cc4cccc(NC(=O)C5CCN(C(=O)CNc6cccc7c6CN(C6CCC(=O)NC6=O)C7=O)CC5)c4F)CC3)c2)c1Cl (stereo not shown) [Example 73, 3-(carboxymethoxy)-4-chloro-5-(3-((1-((3-(1-((2-(2,6-dioxopiperidin-3-yl)-1-oxoisoindolin-4-yl)glycyl)piperidine-4-carboxamido)-2-fluorobenzyl)sulfonyl)piperidin-4-yl)amino)phenyl)thiophene-2-carboxylic acid] | 50 to 200 | ≥ 1000 |
| O=C(O)COc1c(C(=O)O)sc(-c2cccc(NC3CCN(S(=O)(=O)Cc4cccc(NC(=O)CCOCCNC(=O)CNc5ccc6c(c5)C(=O)N(C5CCC(=O)NC5=O)C6=O)c4)CC3)c2)c1Cl (stereo not shown) [Example 24, 3-(carboxymethoxy)-4-chloro-5-[3-[[1-[[3-[3-[2-[[2-[[2-(2,6-dioxo-3-piperidyl)-1,3-dioxo-isoindolin-5-yl]amino]acetyl]amino]ethoxy]propanoylamino]phenyl]methylsulfonyl]-4-piperidyl]amino]phenyl]thiophene-2-carboxylic acid] | 200 to 1000 | ≥ 1000 |
| Cn1c(=O)n(C2CCC(=O)NC2=O)c2ccc(C#CCNC(=O)Nc3cccc(CS(=O)(=O)N4CC[C@H](Nc5cccc(-c6sc(C(=O)O)c(OCC(=O)O)c6Cl)c5)CC4(C)C)c3)cc21 (stereo partly drawn) [Example 91, 3-(carboxymethoxy)-4-chloro-5-(3-(((4S)-1-((3-(3-(3-(1-(2,6-dioxopiperidin-3-yl)-3-methyl-2-oxo-2,3-dihydro-1H-benzo[d]imidazol-5-yl)prop-2-yn-1-yl)ureido)benzyl)sulfonyl)-2,2-dimethylpiperidin-4-yl)amino)phenyl)thiophene-2-carboxylic acid] | 50 to 200 | 50 to 200 |
| Cn1c(=O)n(C2CCC(=O)NC2=O)c2ccc(-c3cccc(CC(=O)Nc4cccc(CS(=O)(=O)N5CC[C@H](Nc6cccc(-c7sc(C(=O)O)c(OCC(=O)O)c7Cl)c6)CC5(C)C)c4)c3)cc21 (stereo partly drawn) [Example 192, 3-(carboxymethoxy)-4-chloro-5-(3-(((4S)-1-((3-(2-(3-(1-(2,6-dioxopiperidin-3-yl)-3-methyl-2-oxo-2,3-dihydro-1H-benzo[d]imidazol-5-yl)phenyl)acetamido)benzyl)sulfonyl)-2,2-dimethylpiperidin-4-yl)amino)phenyl)thiophene-2-carboxylic acid] | 50 to 200 | 50 to 200 |

Continued, values first:

| DC50 [1] [nM] | DC50 [2] [nM] | SMILES |
| --- | --- | --- |
| 50 to 200 | < 50 | Cn1c(=O)n(C2CCC(=O)NC2=O)c2ccc(C3CCN(C(=O)Nc4cccc(CS(=O)(=O)N5CC[C@@H](Nc6cccc(-c7sc(C(=O)O)c(OCC(=O)O)c7Cl)c6F)CC5(C)C)c4)CC3)cc21 (stereo partly drawn) [Example 135, 3-(carboxymethoxy)-4-chloro-5-[3-[[(4R)-1-[[3-[[4-[1-(2,6-dioxo-3-piperidyl)-3-methyl-2-oxo-benzimidazol-5-yl]piperidine-1-carbonyl]amino]phenyl]methylsulfonyl]-2,2-dimethyl-4-piperidyl]amino]-2-fluoro-phenyl]thiophene-2-carboxylic acid] |
| 50 to 200 | 200 to 1000 | CC1(C)C[C@@H](Nc2cccc(-c3sc(C(=O)O)c(OCC(=O)O)c3Cl)c2)CCN1S(=O)(=O)Cc1cccc(NC(=O)OC2CN(C(=O)CNc3cccc4c3CN(C3CCC(=O)NC3=O)C4=O)C2)c1 (stereo partly drawn) [Example 96, 3-(carboxymethoxy)-4-chloro-5-[3-[[(4S)-1-[[3-[[1-[2-[[2-(2,6-dioxo-3-piperidyl)-1-oxo-isoindolin-4-yl]amino]acetyl]azetidin-3-yl]oxycarbonylamino]phenyl]methylsulfonyl]-2,2-dimethyl-4-piperidyl]amino]phenyl]thiophene-2-carboxylic acid] |
| 50 to 200 | 50 to 200 | CC1(C)C[C@@H](Nc2cccc(-c3sc(C(=O)O)c(OCC(=O)O)c3Cl)c2)CCN1S(=O)(=O)Cc1cccc(NC(=O)CCC(=O)NCc2ccc3c4c(cccc24)C(=O)N3C2CCC(=O)NC2=O)c1 (stereo partly drawn) [Example 220, 3-(carboxymethoxy)-4-chloro-5-(3-(((4S)-1-((3-(4-(((1-(2,6-dioxopiperidin-3-yl)-2-oxo-1,2-dihydrobenzo[cd]indol-6-yl)methyl)amino)-4-oxobutanamido)benzyl)sulfonyl)-2,2-dimethylpiperidin-4-yl)amino)phenyl)thiophene-2-carboxylic acid] |
| < 50 | < 50 | Cn1c(=O)n(C2CCC(=O)NC2=O)c2ccc([C@@H]3CCN(C(=O)Nc4cccc(CS(=O)(=O)N5CC[C@H](Nc6cccc(-c7sc(C(=O)O)c(OCC(=O)O)c7Cl)c6)CC5(C)C)c4)CC3(F)F)cc21 (stereo partly drawn) [Example 169, 3-(carboxymethoxy)-4-chloro-5-(3-(((4S)-1-((3-((4S)-4-(1-(2,6-dioxopiperidin-3-yl)-3-methyl-2-oxo-2,3-dihydro-1H-benzo[d]imidazol-5-yl)-3,3-difluoropiperidine-1-carboxamido)benzyl)sulfonyl)-2,2-dimethylpiperidin-4-yl)amino)phenyl)thiophene-2-carboxylic acid] |
| < 50 | 200 to 1000 | CC1(C)C[C@@H](Nc2cccc(-c3sc(C(=O)O)c(OCC(=O)O)c3Cl)c2)CCN1S(=O)(=O)Cc1cccc(NC(=O)CCN2CCC(Nc3cccc4c3CN(C3CCC(=O)NC3=O)C4=O)CC2)c1 (stereo partly drawn) [Example 46, 3-(carboxymethoxy)-4-chloro-5-(3-(((4S)-1-((3-(3-(4-((2-(2,6-dioxopiperidin-3-yl)-1-oxoisoindolin-4-yl)amino)piperidin-1-yl)propanamido)benzyl)sulfonyl)-2,2-dimethylpiperidin-4-yl)amino)phenyl)thiophene-2-carboxylic acid] |
